Reference: ChEMBL document CHEMBL3414512, “Discovery of orally active anticancer candidate CFI-400945 derived from biologically promising spirooxindoles: success and challenges” (Eur J Med Chem, 2015)

What was measured:
[1] = target: Fibroblast growth factor receptor 1 (Homo sapiens, UniProt P11362); experiment: Inhibition of FGFR1 (unknown origin)
[2] = Inhibition of SLC34A2/ROS (unknown origin); parameters: species or system Homo sapiens
[3] = target: Serine/threonine-protein kinase PLK1 (Homo sapiens, UniProt P53350); experiment: Inhibition of PLK-1 (unknown origin)
[4] = target: Serine/threonine-protein kinase PLK2 (Homo sapiens, UniProt Q9NYY3); experiment: Inhibition of PLK-2 (unknown origin)
[5] = target: Serine/threonine-protein kinase PLK3 (Homo sapiens, UniProt Q9H4B4); experiment: Inhibition of PLK-3 (unknown origin)
Serine/threonine-protein kinase PLK3, sequence (Q9H4B4 whole entry): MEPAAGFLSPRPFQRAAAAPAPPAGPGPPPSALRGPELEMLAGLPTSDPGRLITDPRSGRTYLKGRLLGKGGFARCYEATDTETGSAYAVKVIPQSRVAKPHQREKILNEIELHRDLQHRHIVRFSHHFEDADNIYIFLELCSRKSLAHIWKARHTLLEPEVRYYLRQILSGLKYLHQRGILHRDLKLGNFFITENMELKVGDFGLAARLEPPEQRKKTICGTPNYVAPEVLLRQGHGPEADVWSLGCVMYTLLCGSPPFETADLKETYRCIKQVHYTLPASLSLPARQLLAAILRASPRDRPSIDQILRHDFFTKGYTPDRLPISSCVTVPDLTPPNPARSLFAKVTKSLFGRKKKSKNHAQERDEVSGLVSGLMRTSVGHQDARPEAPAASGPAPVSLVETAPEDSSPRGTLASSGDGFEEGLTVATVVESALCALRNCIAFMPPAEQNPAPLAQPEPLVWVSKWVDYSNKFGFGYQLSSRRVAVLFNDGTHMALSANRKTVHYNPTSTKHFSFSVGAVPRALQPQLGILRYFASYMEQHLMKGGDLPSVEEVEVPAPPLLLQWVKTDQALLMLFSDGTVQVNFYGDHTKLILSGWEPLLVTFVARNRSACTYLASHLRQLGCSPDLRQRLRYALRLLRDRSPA

Serine/threonine-protein kinase PLK1, sequence (P53350 whole entry): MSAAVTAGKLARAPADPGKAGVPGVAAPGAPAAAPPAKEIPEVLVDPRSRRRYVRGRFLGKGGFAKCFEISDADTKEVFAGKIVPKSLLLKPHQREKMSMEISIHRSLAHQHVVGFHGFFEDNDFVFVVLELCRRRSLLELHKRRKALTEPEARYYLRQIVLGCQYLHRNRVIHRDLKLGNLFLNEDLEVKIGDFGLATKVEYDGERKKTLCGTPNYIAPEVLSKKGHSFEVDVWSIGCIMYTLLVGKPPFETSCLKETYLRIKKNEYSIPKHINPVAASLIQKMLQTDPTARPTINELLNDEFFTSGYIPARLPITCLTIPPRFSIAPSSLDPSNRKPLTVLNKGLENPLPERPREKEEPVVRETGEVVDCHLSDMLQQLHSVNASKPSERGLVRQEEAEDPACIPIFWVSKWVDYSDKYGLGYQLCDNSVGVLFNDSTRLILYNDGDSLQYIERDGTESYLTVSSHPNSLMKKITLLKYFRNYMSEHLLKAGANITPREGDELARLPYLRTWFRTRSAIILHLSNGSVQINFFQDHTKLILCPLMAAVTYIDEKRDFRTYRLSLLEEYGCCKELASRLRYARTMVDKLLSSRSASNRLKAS
Serine/threonine-protein kinase PLK2, sequence (Q9NYY3 whole entry): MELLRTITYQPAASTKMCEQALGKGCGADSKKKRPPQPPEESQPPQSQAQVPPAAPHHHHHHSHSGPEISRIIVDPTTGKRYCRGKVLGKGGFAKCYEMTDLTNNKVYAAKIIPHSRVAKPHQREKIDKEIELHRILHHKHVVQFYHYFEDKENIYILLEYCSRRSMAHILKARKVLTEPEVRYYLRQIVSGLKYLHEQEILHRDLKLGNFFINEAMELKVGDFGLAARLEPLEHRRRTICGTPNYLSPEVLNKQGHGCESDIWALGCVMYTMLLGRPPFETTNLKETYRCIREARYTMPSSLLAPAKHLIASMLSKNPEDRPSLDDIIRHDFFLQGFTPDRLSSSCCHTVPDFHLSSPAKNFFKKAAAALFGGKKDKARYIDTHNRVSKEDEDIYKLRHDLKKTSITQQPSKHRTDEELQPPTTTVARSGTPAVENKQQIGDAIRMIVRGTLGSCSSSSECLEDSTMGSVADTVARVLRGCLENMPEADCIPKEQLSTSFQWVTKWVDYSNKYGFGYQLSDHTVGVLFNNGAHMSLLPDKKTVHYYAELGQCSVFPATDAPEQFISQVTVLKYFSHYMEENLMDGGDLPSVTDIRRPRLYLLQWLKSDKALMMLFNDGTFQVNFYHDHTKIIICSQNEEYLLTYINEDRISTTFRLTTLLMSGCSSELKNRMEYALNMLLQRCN
Fibroblast growth factor receptor 1, sequence (P11362 whole entry): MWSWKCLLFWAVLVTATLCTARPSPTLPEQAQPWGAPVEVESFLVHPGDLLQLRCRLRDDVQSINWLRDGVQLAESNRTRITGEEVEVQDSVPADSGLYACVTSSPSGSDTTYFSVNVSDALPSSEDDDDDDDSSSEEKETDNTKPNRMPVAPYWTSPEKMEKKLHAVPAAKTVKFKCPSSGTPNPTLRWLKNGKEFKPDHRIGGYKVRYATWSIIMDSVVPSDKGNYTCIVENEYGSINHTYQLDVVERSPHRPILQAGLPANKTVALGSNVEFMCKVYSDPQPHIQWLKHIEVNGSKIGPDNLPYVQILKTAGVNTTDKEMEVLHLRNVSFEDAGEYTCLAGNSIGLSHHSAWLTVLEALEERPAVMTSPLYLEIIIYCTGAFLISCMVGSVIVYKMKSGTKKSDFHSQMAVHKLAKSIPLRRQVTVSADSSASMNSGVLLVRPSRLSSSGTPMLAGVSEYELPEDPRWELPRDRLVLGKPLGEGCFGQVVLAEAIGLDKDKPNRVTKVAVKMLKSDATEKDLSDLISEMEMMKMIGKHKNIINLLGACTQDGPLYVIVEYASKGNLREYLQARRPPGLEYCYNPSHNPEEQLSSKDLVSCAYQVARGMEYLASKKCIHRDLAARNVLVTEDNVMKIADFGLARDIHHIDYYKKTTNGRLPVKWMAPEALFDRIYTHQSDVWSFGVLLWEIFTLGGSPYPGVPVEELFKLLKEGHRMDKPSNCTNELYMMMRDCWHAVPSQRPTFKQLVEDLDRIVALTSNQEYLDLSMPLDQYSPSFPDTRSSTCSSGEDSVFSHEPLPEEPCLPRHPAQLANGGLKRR

`COc1ccc2c(c1)[C@]1(C[C@H]1c1ccc3c(/C=C/c4ccc(CN5C[C@@H](C)O[C@@H](C)C5)cc4)n[nH]c3c1)C(=O)N2` [OCIFISERTIB] gave an EC50 [1] of 1100 nM, an EC50 [2] of 466 nM and an IC50 [3] of over 50000 nM. It also gave an IC50 [4] of over 50000 nM and an IC50 [5] of over 50000 nM.
